Laboratory results: patent US6506774B1, “Use of orexin receptor antagonists” (SmithKline Beecham p.l.c., priority 1999, dated 2003)

Legend:
rats = assay: Rat sleep/EEG studies; assay type: in vivo; details: central administration at the onset of the normal sleep period
Text: Therefore antagonists of its receptor may be useful in the treatment of sleep disorders including insomnia.

freely-feeding rats = details: central administration, 4 hour time period; cited from earlier work

Substance: orexin-A: peptide ligand (agonist) of the orexin-1 receptor; amino acid sequence given in the 1st table (QPLPDCCRQKTCSCRLYELLHGAGNHAAGILTL; Orexin-A; UniProt O43612 34-66, looked up)
- arousal (rats): dose-related increase in arousal
- paradoxical sleep and slow wave sleep 2 (rats): reduction in paradoxical sleep and slow wave sleep 2
- increase in food intake over control rats receiving vehicle (freely-feeding rats): approximately four-fold
